Experimental data: patent EP4417602A1, “SUBSTITUTED PYRAZOLE CARBOXAMIDES, SALTS THEREOF AND THEIR USE AS HERBICIDALLY ACTIVE SUBSTANCES” (Bayer AG, priority 2023, dated 2024)

Tests used:
DIGSA = assay: A. Herbicidal pre-emergence action on harmful plants (Tables A); assay type: in vivo, Digitaria sanguinalis
From the text: (§1) Seeds of mono- and dicotyledonous weed plants were sown in plastic pots (double sowings with one species of mono- and one species of dicotyledonous weed plants per pot), in sandy loam, and covered with soil. The compounds according to the invention, formulated in the form of wettable powders (WP) or as emulsifiable concentrates (EC), were applied to the surface of the covering soil as aqueous suspension or emulsion, with the addition of 0.5% of an additive, at an application rate of 6001 of water per hectare (converted). Following treatment, the pots were placed in a greenhouse and kept under optimum growth conditions for the test plants. The visual grading of the damage to the test plants was carried out after ca. 3 weeks in comparison to untreated controls (herbicidal effect in percent (%): 100% effect = plants have died off, 0% effect = as control plants). Tables A1 to A12, below, show the effects of selected compounds of the general formula (I) according to table 1 on various harmful plants and an application rate corresponding to 1280 g/ha or below obtained by the experimental procedure mentioned above. Table A1: pre-emergence activity at 1280g/ha against ABUTH in %

POAAN [1] = assay: as above; assay type: in vivo, Poa annua
From the text: as §1

POAAN [2] = assay: B. Herbicidal post-emergence action on harmful plants (Tables B); assay type: in vivo, Poa annua
Method: (§2) Seeds of mono- and dicotyledonous weed plants were placed in plastic pots in sandy loam soil (doubly sown with in each case one species of mono- or dicotyledonous weed plants per pot), covered with soil and cultivated in a greenhouse under controlled growth conditions. 2 to 3 weeks after sowing, the test plants were treated at the one-leaf stage. The compounds of the invention, formulated in the form of wettable powders (WP) or as emulsion concentrates (EC), were applied onto the green parts of the plants as aqueous suspension or emulsion with addition of 0.5% additive at a water application rate of 600 liters per hectare (converted). After the test plants had been kept in the greenhouse under optimum growth conditions for about 3 weeks, the activity of the preparations was rated visually in comparison to untreated controls. For example, 100% activity = the plants have died, 0% activity = like control plants. Tables B1 to B12, below, show the effects of selected compounds of the general formula (I) according to table 1 on various harmful plants and an application rate corresponding to 1280 g/ha or below obtained by the experimental procedure mentioned above. Table B1a: post-emergence activity at 1280g/ha against ABUTH in %

MATIN [3] = assay: A. Herbicidal pre-emergence action on harmful plants (Tables A); assay type: in vivo, Matricaria inodora
From the text: as §1

AMARE = assay: as above; assay type: in vivo, Amaranthus retroflexus; details: application rate 1280 g/ha; visual grading after ca. 3 weeks vs untreated controls; 100% = plants have died off, 0% = as control plants
From the text: as §1

ECHCG [4] = assay: as above; assay type: in vivo, Echinochloa crus-galli; details: visual grading after ca. 3 weeks vs untreated controls, 100% = plants have died off, 0% = as control plants
From the text: as §1

SETVI = assay: as above; assay type: in vivo, Setaria viridis; details: visual grading after ca. 3 weeks vs untreated controls, 100% = plants have died off, 0% = as control plants
From the text: as §1

STEME = assay: as above; assay type: in vivo, Stellaria media; details: visual grading after ca. 3 weeks vs untreated controls, 100% = plants have died off, 0% = as control plants
From the text: as §1

LOLRI = assay: as above; assay type: in vivo, Lolium rigidum; details: visual grading after ca. 3 weeks vs untreated controls, 100% = plants have died off, 0% = as control plants
From the text: as §1

ALOMY = assay: as above; assay type: in vivo, Alopecurus myosuroides
From the text: as §1

ECHCG [5] = assay: B. Herbicidal post-emergence action on harmful plants (Tables B); assay type: in vivo, Echinochloa crus-galli; details: application rate 1280 g/ha; Table B2a
Method: as §2

MATIN [6] = assay: as above; assay type: in vivo, Matricaria inodora; details: application rate 1280 g/ha; Table B4a
Method: as §2

VERPE = assay: as above; assay type: in vivo, Veronica persica; details: application rate 1280 g/ha; Table B11a
Method: as §2

[7] = application rate 320 g/ha, Table A12b
[8] = application rate 1280 g/ha, Table A12a
[9] = application rate 1280 g/ha, visual grading after ca. 3 weeks vs untreated controls, 100% = plants have died off, 0% = as control plants
[10] = application rate 1280 g/ha, Table B7a
[11] = application rate 80 g/ha, Table A7c
[12] = application rate 320 g/ha, Table A7b
[13] = application rate 320 g/ha, Table A9b
[14] = application rate 1280 g/ha, Table A9a
[15] = application rate 80 g/ha, Table A12c
[16] = application rate 80 g/ha, Table B7c
[17] = application rate 320 g/ha, Table B7b

Compound | pre-emergence activity against DIGSA (DIGSA; [7]) | pre-emergence activity against DIGSA (DIGSA; [8]) | pre-emergence activity against POAAN (POAAN [1]; [9]) | post-emergence activity against POAAN (POAAN [2]; [10]) | pre-emergence activity against AMARE (AMARE) | pre-emergence activity against ECHCG (ECHCG [4]; application rate 320 g/ha) | pre-emergence activity against ECHCG (ECHCG [4]; application rate 1280 g/ha) | pre-emergence activity against SETVI (SETVI; application rate 320 g/ha) | pre-emergence activity against SETVI (SETVI; application rate 1280 g/ha) | pre-emergence activity against STEME (STEME; application rate 1280 g/ha) | pre-emergence activity against LOLRI (LOLRI; application rate 1280 g/ha) | pre-emergence activity against POAAN (POAAN [1]; [11]) | pre-emergence activity against POAAN (POAAN [1]; [12]) | pre-emergence activity against MATIN (MATIN [3]; [9]) | pre-emergence activity against ALOMY (ALOMY; [13]) | pre-emergence activity against ALOMY (ALOMY; [14]) | post-emergence activity against POAAN (POAAN [2]; [17]) | pre-emergence activity against ECHCG (ECHCG [4]; application rate 80 g/ha) | pre-emergence activity against LOLRI (LOLRI; application rate 320 g/ha) | post-emergence activity against VERPE (VERPE) | further results
COCc1nn(C)c(Cl)c1C(=O)N1CCCC1Cc1ccccc1F (single isomer, unassigned) [Example I-058] | 90% | 100% | 100% | 90% | 100% | 90% | 100% | 90% | 100% | 90% | 90% | – | – | – | – | – | – | – | – | – | pre-emergence activity against MATIN (MATIN [3]; pre-emergence, 1280 g/ha, 504 h): 90%
COCc1c(C(=O)N2CCCC2Cc2ccccc2C)cnn1C (single isomer, unassigned) [Example I-139] | 90% | 100% | 100% | – | 90% | – | 100% | – | 100% | – | 90% | 100% | 100% | – | – | – | – | – | – | – | –
COCc1c(C(=O)N2CCCC2Cc2ccc(F)cc2F)cnn1C (racemic) [Example I-158] | – | 100% | 100% | 100% | – | – | 100% | – | 90% | 90% | 90% | – | 100% | 90% | 100% | 100% | – | – | – | – | post-emergence activity against ECHCG (ECHCG [5]): 90%
COCc1nn(C)cc1C(=O)N1CCCC1Cc1c(F)cccc1F (racemic) [Example I-081] | 100% | 100% | 100% | 100% | 90% | 100% | 100% | 100% | 100% | 90% | 100% | 100% | 100% | 90% | 90% | 100% | 90% | 90% | 100% | – | pre-emergence activity against DIGSA (DIGSA; [15]): 90%; post-emergence activity against POAAN (POAAN [2]; [16]): 90%; pre-emergence activity against MATIN (MATIN [3]; application rate 320 g/ha, visual grading after ca. 3 weeks vs untreated controls, 100% = plants have died off, 0% = as control plants): 90%; post-emergence activity against MATIN (MATIN [6]): 90%; pre-emergence activity against SETVI (SETVI; application rate 80 g/ha): 90%; pre-emergence activity against LOLRI (LOLRI; application rate 80 g/ha): 100%
COCc1nn(C)cc1C(=O)N1CCCC1Cc1ncccc1F (racemic) [Example I-015] | – | – | 100% | 90% | – | 90% | 100% | – | 90% | – | 100% | 100% | 100% | – | – | 90% | 90% | – | – | 90% | –
CCOCc1c(C(=O)N2CCCC2Cc2ccccc2F)cnn1C (single isomer, unassigned) [Example I-142] | 90% | 100% | 100% | 90% | 90% | 90% | 100% | 90% | 100% | 90% | 100% | 90% | 100% | 90% | – | 90% | – | 90% | 90% | – | pre-emergence activity against STEME (STEME; application rate 320 g/ha): 90%
COCc1nn(C(=O)NC2CC2)cc1C(=O)N1CCCC1Cc1ccccc1F (racemic) [Example I-036] | 90% | 100% | 100% | – | – | 90% | 100% | – | 90% | 90% | 90% | 90% | 90% | 90% | – | 90% | – | – | 90% | 90% | pre-emergence activity against STEME (STEME; application rate 320 g/ha): 90%
COCc1nn(C)cc1C(=O)N1CCCC1Cc1ccc(Cl)cc1Cl (racemic) [Example I-016] | – | – | 100% | 90% | – | 90% | 100% | – | 90% | – | – | – | 100% | – | – | – | – | – | – | – | post-emergence activity against ECHCG (ECHCG [5]): 90%
COCc1nn(C)cc1C(=O)N1CCCC1Cc1ccccc1OC (racemic) [Example I-014] | – | – | 100% | – | – | 90% | 100% | – | 90% | – | 100% | – | 100% | – | – | 90% | – | – | 90% | 90% | –
COCc1c(C(=O)N2CCCC2Cc2c(F)cccc2F)cnn1C (single isomer, unassigned) [Example I-126] | 100% | 100% | 100% | 90% | – | 90% | 90% | 90% | 100% | 90% | 100% | 90% | 90% | 90% | 90% | 90% | 90% | 90% | 90% | – | pre-emergence activity against DIGSA (DIGSA; [15]): 90%; post-emergence activity against POAAN (POAAN [2]; [16]): 90%; pre-emergence activity against SETVI (SETVI; application rate 80 g/ha): 90%; pre-emergence activity against STEME (STEME; application rate 320 g/ha): 90%
